# Reference: patent publication US5219741A, “Method of making L-proline using an N-acyl-L-protine acylase” (priority 1990, dated 1993)
# “Also recorded” adds a separate entry of the source. Where two headings read alike, the source gives them in different places.
# How the values were obtained:
# N-acyl-L-proline acylase [1] = assay: Dependence of the acylase activity on the substrate concentration (KM); assay type: biochemical, Comamonas testosteroni DSM 5416; details: 30° C., 0.1M tris-HCl buffer, pH 7.0
# Protocol: The reaction temperature was 30° C. and the incubation time 10 minutes. The N-acetyl-L-proline concentration of the reaction batch was varied in a range from 1 to 50 mM.
# [2] = system: N-acyl-L-proline acylase formation in Comamonas testosteroni DSM 5416; assay: Acylase formation: specific activity of N-acyl-L-proline acylase in crude extract; assay type: cell-based
# Protocol: After 24 to 48 hours, the cell-containing nutrient medium was centrifuged (15 min., 4,500 g in a cooling centrifuge), the cells were washed twice with 0.9% (w/v) NaCl solution and resuspended in 10 ml 0.1M tris-HCl buffer, pH 7.0.
# The microorganisms of this suspension were macerated by ultrasound treatment (Sonifier-Cell Disrupter B-30 of the firm Branson Sonic Power Co., Danbury, Conn., USA) (2 minutes pulsating, corresponding to 1 minute of pure ultrasonic radiation. The cell fragments and non-macerated cells were centrifuged in a cooled centrifuge 30 minutes at 40,000 g and 5° C. The clear supernatant (=crude extract) was used in an enzyme test.
# The reaction was started by adding crude extract and the reaction batches customarily incubated for 10 minutes at 30° C. The incubation time and the amount of crude extract were selected so that the linearity range of the enzymatic reaction and of the subsequent proline detection were not exceeded.
# The enzymatic reaction was interrupted by pipetting 50 μl of the enzyme sample into 1.25 ml 100% acetic acid. Subsequently, 0.45 ml 0.1M tris-HCl buffer pH 7.0 and 1.25 ml ninhydrin reagent (3 g ninhydrin dissolved by heating in a mixture of 60 ml 100% acetic acid and 40 ml 6M phosphoric acid) were added. The ninhydrin reagent was freshly prepared daily. The test tubes were loosely closed with screw-on caps, incubated 30 minutes at 100° C. and subsequently cooled down in an ice bath.
# The L-proline, liberated by the enzymatic hydrolysis, forms a red dye with ninhydrin at 100° C. The absorption of the red dye was measured in a spectrophotometer at 480 nm relative to a control batch without crude extract (=substrate blank). The concentration of the L-proline produced was determined using a straight calibration line with L-proline in a range of 5 to 100 nmoles per 50 μl specimen. The enzyme activity was indicated in international units; thus, one unit (U) corresponded to an amount of 1 μmole L-proline produced per minute.
# The protein determination was carried out with a protein-determination kit of the firm Pierce Chemical Co., Rockford, Ill., USA, according to Bradford, Anal. Biochem. 72, pp. 248-254 (1976).
# (§1) The carbon source of the culture medium with a concentration of 4 g/l was varied and the influence on growth and acylase formation determined.
# (§2) The concentration of N-acetyl-L-proline was varied in a range of 1 g/l-5 g/l in steps of 1 g/l in the culture medium as described in Example 1.
# (§3) The concentration of (NH4)2 SO4 was varied in a range of 1 g/l-5 g/l in steps of 1 g/l in the culture medium as described in Example 1.
# (§4) The concentration of yeast extract was varied in a range of 1 g/l-5 g/l in steps of 1 g/l in the culture medium as described in Example 1.
# (§5) The N-acetyl-L-proline concentration was reduced to 0.2 to 1.0 g/l in the culture medium as described in Example 1 and 4 g/l Na acetate were additionally added.
# (§6) The method described above under f) was followed. However, the inductor, N-acetyl-L-proline, was not added to the nutrient medium until the late exponential growth phase after an incubation time of 12 hours.
# (§7) The method described above under f) was followed. In addition to N-acetyl-L-proline, various N-acetyl- and N-chloroacetyl amino acids were added to the nutrient medium in a concentration of 1 g/l.
# [3] = system: Comamonas testosteroni DSM 5416; assay: Growth of the strain in culture medium (OD600); assay type: cell-based
# Protocol: Strains which appeared uniform according to the colony morphology and the microscopic image were then cultivated in 100 ml liquid medium (500 ml Erlenmeyer flask with top and 4 lateral baffles) at 30° C. on a rotary agitator machine at 200 rpms. The culture medium had the following composition: […]
# as §1, §2, §3, §4, §5, §6, §7
# N-acyl-L-proline acylase [4] = assay: Substrate specificity: hydrolysis of N-acyl amino acids and proline derivatives; assay type: biochemical, Comamonas testosteroni DSM 5416
# N-acyl-L-proline acylase [5] = assay: Stereospecificity of hydrolysis of N-acetyl-D,L-proline; assay type: biochemical, Comamonas testosteroni DSM 5416
# Protocol: The hydrolysis of N-acyl-L-proline, N-acetyl-D,L-proline and N-acetyl-D-proline was determined in the following reaction mixture:
# The reaction mixture was incubated for two hours at 30° C. and the L-proline produced was determined by amino acid analysis as in Example 10.
# [6] = N-acetyl-L-proline 0.2 g/l + 4 g/l Na acetate, 34 hours
# [7] = N-acetyl-L-proline 0.2 g/l added after 12 hours (late exponential growth phase), Na acetate medium, 24 hours further
# [8] = N-acetyl-L-proline 0.4 g/l + 4 g/l Na acetate, 34 hours
# [9] = N-acetyl-L-proline 0.4 g/l added after 12 hours (late exponential growth phase), Na acetate medium, 24 hours further
# [10] = N-acetyl-L-proline 0.6 g/l + 4 g/l Na acetate, 34 hours
# [11] = N-acetyl-L-proline 0.6 g/l added after 12 hours (late exponential growth phase), Na acetate medium, 24 hours further
# [12] = N-acetyl-L-proline 0.8 g/l + 4 g/l Na acetate, 34 hours
# [13] = N-acetyl-L-proline 0.8 g/l added after 12 hours (late exponential growth phase), Na acetate medium, 24 hours further
# [14] = N-acetyl-L-proline 1.0 g/l + 4 g/l Na acetate, 34 hours
# [15] = N-acetyl-L-proline 1.0 g/l added after 12 hours (late exponential growth phase), Na acetate medium, 24 hours further
# [16] = N-acetyl-L-proline 1 g/l in culture medium, 24 hours
# [17] = N-acetyl-L-proline 2 g/l in culture medium, 24 hours
# [18] = N-acetyl-L-proline 3 g/l in culture medium, 24 hours
# [19] = N-acetyl-L-proline 4 g/l in culture medium, 24 hours
# [20] = N-acetyl-L-proline 5 g/l in culture medium, 24 hours
# [21] = carbon source 4 g/l in culture medium
# [22] = inductor 1 g/l + 4 g/l Na acetate, 24 hours
smiles,measurement,setting,value
CC(=O)N1CCC[C@H]1C(=O)O [N-acetyl-L-proline],Km,N-acyl-L-proline acylase [1],5 mM
same,Acylase formation / induction (in words),[2],only formed; also recorded: induced acylase formation
same,Optimum concentration in the culture medium for acylase formation,[2],4 g/L
same,Spec. activity (U/mg),[2]; [6],0.53 U/mg
same,Spec. activity (U/mg),[2]; [7],0.50 U/mg
same,Spec. activity (U/mg),[2]; [8],0.79 U/mg
same,Spec. activity (U/mg),[2]; [9],0.63 U/mg
same,Spec. activity (U/mg),[2]; [10],1.41 U/mg
same,Spec. activity (U/mg),[2]; [11],0.96 U/mg
same,Spec. activity (U/mg),[2]; [12],1.70 U/mg
same,Spec. activity (U/mg),[2]; [13],0.67 U/mg
same,Spec. activity (U/mg),[2]; [14],1.55 U/mg
same,Spec. activity (U/mg),[2]; [15],1.08 U/mg
same,Spec. activity (U/mg),[2]; [16],1.33 U/mg
same,Spec. activity (U/mg),[2]; [17],1.36 U/mg
same,Spec. activity (U/mg),[2]; [18],1.77 U/mg
same,Spec. activity (U/mg),[2]; [19],1.84 U/mg
same,Spec. activity (U/mg),[2]; [20],0.94 U/mg
same,Spec. activity (U/mg),[2]; [21],2.26 U/mg
same,Spec. activity (U/mg),[2]; [22],1.34 U/mg
same,Growth (OD600),[3]; [6],2.27 OD600
same,Growth (OD600),[3]; [7],2.22 OD600
same,Growth (OD600),[3]; [8],2.90 OD600
same,Growth (OD600),[3]; [9],2.28 OD600
same,Growth (OD600),[3]; [10],2.75 OD600
same,Growth (OD600),[3]; [11],2.76 OD600
same,Growth (OD600),[3]; [12],3.04 OD600
same,Growth (OD600),[3]; [13],2.95 OD600
same,Growth (OD600),[3]; [14],3.12 OD600
same,Growth (OD600),[3]; [15],2.88 OD600
same,Growth (OD600),[3]; [16],1.95 OD600
same,Growth (OD600),[3]; [17],3.16 OD600
same,Growth (OD600),[3]; [18],4.32 OD600
same,Growth (OD600),[3]; [19],5.42 OD600
same,Growth (OD600),[3]; [20],5.68 OD600
same,Growth (OD600),[3]; [21],6.0 OD600
same,Growth (OD600),[3]; [22],3.46 OD600
same,Hydrolysis by the acylase (in words),N-acyl-L-proline acylase [4],hydrolyzed especially well
same,Rel. activity (%),"N-acyl-L-proline acylase [4]; 20 mM substrate 1.0 ml in 2.0 ml batch, 30° C., pH 7.0, N-acetyl-L-proline = 100%, amino-acid analyzer",100%
same,Hydrolysis by the acylase (in words),N-acyl-L-proline acylase [4]; listed as N-acetyl-L proline,hydrolyzes
same,Relative Activity (%),"N-acyl-L-proline acylase [4]; proline derivatives, 30° C., pH 7.0, N-acetyl-L-proline = 100%",100%
same,Stereospecific hydrolysis (in words),N-acyl-L-proline acylase [5],hydrolyzes
same,L-proline (mmol/l) produced,"N-acyl-L-proline acylase [5]; substrate 10 mmol/l, two hours at 30° C., pH 7.0",10.25 mmol/L
